From patent US7932086B2, “Commercially viable process for in vitro mass culture of Jatropha curcas” (Reliance Life Sciences Pvt. Ltd., priority 2007, dated 2011)

System: Jatropha curcas elongated shoots
Experiment: in vitro rooting of elongated shoots
Assay type: cell-based
Conditions: 4.9 μM in half strength Murashige & Skoog Basal Medium

## O=C(O)CCCc1c[nH]c2ccccc12 [IBA, Indole-3-butyric acid]
  root formation: well-formed roots
